Source: US20220064214A1, “NOVEL PEPTIDES AND USES THEREOF” (CENNA BIOSCIENCES INC., priority 2019, published 2022)
“Also recorded” adds a separate entry of the source. Read-outs that look alike come from different tables or passages of the source. Square brackets hold non-standard residues; d marks the D form. Peptide text beside a SMILES is read from it.

What was measured:
[1] = PK analysis of 8M2D in transgenic mice (APPSWE), plasma; settings: mouse, in vivo, sc
Source text: Pharmacokinetics (PK) of 8M2D was further analyzed with various doses at days 1 and 13 in transgenic mice (APPSWE (B6; SJL 2576 Kha; Taconic)). See Hsiao et al., Correlative memory deficits, Aβ elevation, and amyloid plaques in transgenic mice. Science 274:99-102 (1996); and Haugabook et al., Reduction of Abeta accumulation in the Tg2576 animal model of Alzheimer's disease after oral administration of the phosphatidyl-inositol kinase inhibitor wortmannin. Faseb J 15:16-18 (2001).

Aβ40 = assay: Efficacy in reducing Aβ40 in rat plasma (ELISA); format: in vivo; settings: for reduction in Aβ40 / Percent Decrease in Aβ 40 in Rat Plasma: 10 mg/kg SC; for Percent Decrease in Aβ 40 in Rat Plasma: mean of 3 rats, negative = decrease
Procedure: Blood was collected through jugular vein cannulas, and the samples were collected into tubes with K2EDTA. After centrifuging at a temperature of 2 to 8° C. at 4,000×g for 5 minutes, the resulting plasma was split into equal aliquots, frozen, and stored at −60 to −80° C. One aliquot was for PK analysis and the other was for Aβ analysis (see Example 4).
Rats (n=3 per peptide) were administered with P8, 8M1D, or 8M2D (10 mg/kg) subcutaneously, and plasma were collected at 0, 6, 12, and 24 h after dosing and Aβ40 analysis was carried out by ELISA (Invitrogen).

[2] = Delivery to brain in transgenic mice (brain concentrations); format: in vivo; design: Brain Concentration / Brain Concentration, Mean: unit not given here
Procedure: Critical to the development of any therapeutic for diseases like AD is the requirement that it can be delivered to the brain. Delivery to brain and efficacy of P8 and 8M2D in reducing Aß was analyzed in the transgenic mice described in Section 6.3 above. […]

Aß = assay: Efficacy in reducing Aß in APP transgenic mice (analysis in CSF and brain); format: in vivo; settings: Tg mice over-expressing Aß
Procedure: Critical to the development of any therapeutic for diseases like AD is the requirement that it can be delivered to the brain. Delivery to brain and efficacy of P8 and 8M2D in reducing Aß was analyzed in the transgenic mice described in Section 6.3 above.
The maximum efficacious dose of 8M2D in Tg mice over-expressing Aß is at just over 50 mg/kg. This gives a 65% reduction in Aß 42. […] Experiments are performed to establish the minimum efficacious dose in Tg mice.

Aβ = assay: Reduction of Aβ in retinal cells differentiated from iPSC derived from Alzheimer's disease patients; format: cell-based
Source text: The accumulation of Aβ in the retina was studied in this example. Retinal cells were differentiated from induced pluripotent stem (iPSC) cells derived from Alzheimer's disease patients.

AUC(0-t) ([1]; 50 mg/kg, Day 1, 50 mg/kg, read-out: AUClast): 70.5 µg·h/mL
CL/F ([1]; 50 mg/kg, Day 1, 50 mg/kg, read-out: Cl/F): 11.8 mL/min/kg
Cmax ([1]; 50 mg/kg, Day 1, 50 mg/kg, read-out: Cmax): 111 µg/mL
Tmax ([1]; 50 mg/kg, Day 1, 50 mg/kg, read-out: Tmax): 0.17 h
Vd/F ([1]; 50 mg/kg, Day 1, 50 mg/kg, read-out: Vz/F): 7.59 L/kg
half-life ([1]; 50 mg/kg, Day 1, 50 mg/kg, read-out: t1/2 (converted)): 7.4 h
AUC(0-t) ([1]; 50 mg/kg, Day 13, 50 mg/kg, read-out: AUClast): 49.7 µg·h/mL
CL/F ([1]; 50 mg/kg, Day 13, 50 mg/kg, read-out: Cl/F): 12.9 mL/min/kg
Cmax ([1]; 50 mg/kg, Day 13, 50 mg/kg, read-out: Cmax): 73 µg/mL
Tmax ([1]; 50 mg/kg, Day 13, 50 mg/kg, read-out: Tmax): 0.17 h
Vd/F ([1]; 50 mg/kg, Day 13, 50 mg/kg, read-out: Vz/F): 148 L/kg
half-life ([1]; 50 mg/kg, Day 13, 50 mg/kg, read-out: t1/2 (converted)): 130 h
AUC(0-t) ([1]; 250 mg/kg, Day 1, 250 mg/kg, read-out: AUClast): 176 µg·h/mL
CL/F ([1]; 250 mg/kg, Day 1, 250 mg/kg, read-out: Cl/F): 23.6 mL/min/kg
Cmax ([1]; 250 mg/kg, Day 1, 250 mg/kg, read-out: Cmax): 207 µg/mL
Tmax ([1]; 250 mg/kg, Day 1, 250 mg/kg, read-out: Tmax): 0.17 h
Vd/F ([1]; 250 mg/kg, Day 1, 250 mg/kg, read-out: Vz/F): 5.84 L/kg
half-life ([1]; 250 mg/kg, Day 1, 250 mg/kg, read-out: t1/2 (converted)): 2.9 h
AUC(0-t) ([1]; 250 mg/kg, Day 1, Mean over the 10, 50 and 250 mg/kg doses (N 3), read-out: AUClast, Mean): 86.4 µg·h/mL
CL/F ([1]; 250 mg/kg, Day 1, Mean over the 10, 50 and 250 mg/kg doses (N 3), read-out: Cl/F, Mean): 16.1 mL/min/kg
Cmax ([1]; 250 mg/kg, Day 1, Mean over the 10, 50 and 250 mg/kg doses (N 3), read-out: Cmax, Mean): 111 µg/mL
Tmax ([1]; 250 mg/kg, Day 1, Mean over the 10, 50 and 250 mg/kg doses (N 3), read-out: Tmax, Mean): 0.167 h
Vd/F ([1]; 250 mg/kg, Day 1, Mean over the 10, 50 and 250 mg/kg doses (N 3), read-out: Vz/F, Mean): 7.42 L/kg
half-life ([1]; 250 mg/kg, Day 1, Mean over the 10, 50 and 250 mg/kg doses (N 3), read-out: t1/2, Mean (converted)): 6.06 h
AUC(0-t) ([1]; 250 mg/kg, Day 13, 250 mg/kg, read-out: AUClast): 290 µg·h/mL
CL/F ([1]; 250 mg/kg, Day 13, 250 mg/kg, read-out: Cl/F): 13.5 mL/min/kg
Cmax ([1]; 250 mg/kg, Day 13, 250 mg/kg, read-out: Cmax): 278 µg/mL
Tmax ([1]; 250 mg/kg, Day 13, 250 mg/kg, read-out: Tmax): 0.17 h
Vd/F ([1]; 250 mg/kg, Day 13, 250 mg/kg, read-out: Vz/F): 33.4 L/kg
half-life ([1]; 250 mg/kg, Day 13, 250 mg/kg, read-out: t1/2 (converted)): 29 h
AUC(0-t) ([1]; 250 mg/kg, Day 13, Mean over the 10, 50 and 250 mg/kg doses (N 3), read-out: AUClast, Mean): 117 µg·h/mL
CL/F ([1]; 250 mg/kg, Day 13, Mean over the 10, 50 and 250 mg/kg doses (N 3), read-out: Cl/F, Mean): 13.5 mL/min/kg
Cmax ([1]; 250 mg/kg, Day 13, Mean over the 10, 50 and 250 mg/kg doses (N 3), read-out: Cmax, Mean): 121 µg/mL
Tmax ([1]; 250 mg/kg, Day 13, Mean over the 10, 50 and 250 mg/kg doses (N 3), read-out: Tmax, Mean): 0.167 h
Vd/F ([1]; 250 mg/kg, Day 13, Mean over the 10, 50 and 250 mg/kg doses (N 3), read-out: Vz/F, Mean): 63.8 L/kg
half-life ([1]; 250 mg/kg, Day 13, Mean over the 10, 50 and 250 mg/kg doses (N 3), read-out: t1/2, Mean (converted)): 56.5 h
Brain Concentration ([2]; transgenic mice, SC, dose 10 mg/kg, individual animals): BQL
Brain Concentration, Mean ([2]; transgenic mice, SC, dose 50 mg/kg, N 2): 9.06
Brain Concentration, Mean ([2]; transgenic mice, SC, dose 250 mg/kg, N 5): 15.4
Structure (SMILES): CC(=O)N[C@H](CC(=O)O)C(=O)N[C@@H](CCC(=O)O)C(=O)N[C@@H](CCC(=O)O)C(=O)N[C@@H](CCC(=O)O)C(=O)N[C@@H](CC(=O)O)C(=O)N[C@@H](CCC(=O)O)C(=O)N[C@@H](CCC(=O)O)C(=O)N[C@@H](CC(C)C)C(N)=O [8M2D, Ac-dEEEDEEL-NH2] (Ac-[dD]EEEDEEL-NH2)
reduction in Aβ40 (Aβ40; rat plasma, 12 hr post dosing): about 35%
reduction in Aβ40 (Aβ40; rat plasma, 24 h post dosing): about 27%
reduction of Aβ40 compared with the other peptides (in words) (Aβ40; rat plasma, SC): more potent than P8 and 8M1D; also recorded: more effectively than P8 and 8M1D
Percent Decrease in Aβ 40 in Rat Plasma (Aβ40; 0 h): 0.00%
Percent Decrease in Aβ 40 in Rat Plasma (Aβ40; 6 h): −26.62%
Percent Decrease in Aβ 40 in Rat Plasma (Aβ40; 12 h): −35.27%
Percent Decrease in Aβ 40 in Rat Plasma (Aβ40; 24 h): −27.36%
delivery to the APPTg mouse brain (in words) ([2]; SC administration): in sufficient amounts to reduce Aß in the brain
efficacy on increasing the dose 5× (in words) (Aß; SC): only a marginal increase in efficacy
maximum efficacious dose (Aß; SC dosing): over 50 mg/kg
reduction in Aß 42 (Aß; SC, at the maximum efficacious dose (just over 50 mg/kg)): 65%
production of Aβ in retinal cells in the presence of the peptide (in words) (Aβ): reduced
